Conditions in all cases: 336 h, Table 3, post-emergence, 14±1 days post application
Test [1] has as its system Echinochloa crus-gaffi (ECHCG). Put plainly: Post-emergence glasshouse test, visual injury, ECHCG. It counts as in vivo, Echinochloa crus-galli. An outline of the steps:
(§1)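 In this glasshouse test, sandy-loam-grown plants at BBCH 12-14 received a foliar spray of compound in 0.5% Tween 20 acetone/water (50:50) at rates expressed in g/ha. Injury was rated visually against untreated plots two weeks (14±1 d) later.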

Test [2] deals with Veronica persica (VERPE). Put plainly: Post-emergence glasshouse test, visual injury, VERPE. It counts as in vivo. In short, it runs like this:
as §1

Test [3] deals with Lolium multiflorum (LOLMU). In words: Post-emergence glasshouse test, visual injury, LOLMU. It counts as in vivo. An outline of the steps:
as §1

Test [4] concerns Amaranthus retroflexus (AMARE). Put plainly: Post-emergence glasshouse test, visual injury, AMARE. The class given is in vivo. In short, it runs like this:
as §1

The record followed here is patent US20230329236A1, “HERBICIDAL PYRIMIDINE DERIVATIVES” (MoA Technology Limited, priority 2020, published 2023).

For orientation: pest or weed control means how far the test organism was held down. A lower pest or weed control goes with a weak effect.

As for `Cc1cc(-c2cnc(N3CCCCC3)nc2C(C)(C)C)on1` [Compound 48], the pest or weed control at 500 g/ha amounted to 10% in test [1], 0% in test [2], 70% in test [3] and 20% in test [4].

For `Cc1cc(-c2cnc(NC3CCOCC3)nc2C(F)(F)F)on1` [Compound 116], the pest or weed control at 125 g/ha turned out to be 0% in test [1], 95% in test [2], 0% in test [3] and 0% in test [4].

For the compound `Cc1cc(-c2cnc(NCc3cccc(Cl)c3)nc2C(C)C)on1` [Compound 117], the pest or weed control at 125 g/ha in test [1] stood at 70%; in test [2] it was 70%; in test [3] it was 30%; in test [4], 70%.

For `Cc1cc(-c2cnc(NCC3CCCC3)nc2C(C)C)on1` [Compound 107], the pest or weed control at 125 g/ha in test [1] is 50%; in test [2], 50%; in test [3], 0%; in test [4], 30%.

In the case of `Cc1cc(-c2cnc(N3CCNC(=O)C3)nc2-c2ccc(C)o2)on1` [Compound 37], the pest or weed control at 500 g/ha in test [1] amounted to 0%; in test [2], 0%; in test [3], 0%; in test [4] it was 50%.

On to `Cc1cc(-c2cnc(NC3CCCC3)nc2C(F)F)on1` [Compound 119], for which the pest or weed control at 125 g/ha amounted to 0% in test [1], 0% in test [2], 0% in test [3] and 50% in test [4].

Consider `Cc1cc(-c2cnc(N)nc2-c2ccc(C)o2)on1` [Compound 2, 5-(3-methyl-1,2-oxazol-5-yl)-4-(5-methylfuran-2-yl)pyrimidin-2-amine], for which the pest or weed control at 500 g/ha in test [1] turned out to be 10%; in test [2], 0%; in test [3], 40%; in test [4] it was 30%.

As to `Cc1cc(-c2cnc(N3CCC(C(N)=O)CC3)nc2-c2ccc(C)s2)on1` [Compound 88], the pest or weed control at 125 g/ha in test [1] was determined as 20%; in test [2] it was 0%; in test [3], 0%; in test [4], 20%.

Consider `Cc1ccc(CNc2ncc(-c3cc(C)no3)c(C(C)C)n2)cc1` [Compound 100], for which the pest or weed control at 62 g/ha amounted to 80% in test [1], 95% in test [2], 0% in test [3] and 80% in test [4].

For the compound `Cc1cc(-c2cnc(NCc3cccs3)nc2C2CC2)on1` [Compound 80], the pest or weed control at 500 g/ha in test [1] turned out to be 80%; in test [2], 60%; in test [3], 30%; in test [4], 60%.

Take `Cc1cc(-c2cnc(NCCc3c(C)noc3C)nc2C(C)C)on1` [Compound 62]: the pest or weed control at 500 g/ha in test [1] is 50%; in test [2], 70%; in test [3] it was 40%; in test [4], 70%.

`Cc1cc(-c2cnc(N(C)C3CCCC3)nc2C(F)(F)F)on1` [Compound 112]: the pest or weed control at 125 g/ha in test [1] was found to be 0%; in test [2], 0%; in test [3] it was 20%; in test [4] it was 20%.

In the case of `Cc1cc(-c2cnc(NC3CCC3)nc2C2CC2)on1` [Compound 12], the pest or weed control at 250 g/ha in test [1] was 90%; in test [2], 100%; in test [3], 30%; in test [4], 100%.

In the case of `Cc1cc(-c2cnc(NC3CCCc4sc(Cl)cc43)nc2C(C)C)on1` (stereo not shown) [Compound 3], the pest or weed control at 125 g/ha in test [1] worked out at 60%; in test [2], 10%; in test [3], 0%; in test [4] it was 60%.

For the compound `Cc1cc(-c2cnc(N(C)C3CCCC3)nc2C(C)C)on1` [Compound 9], the pest or weed control at 125 g/ha in test [1] stood at 60%; in test [2], 80%; in test [3], 60%; in test [4], 95%.

Consider `Cc1cc(-c2cnc(NCc3ccc(F)cc3)nc2C(F)(F)F)on1` [Compound 127], for which the pest or weed control at 125 g/ha in test [1] is 60%; in test [2], 98%; in test [3] it was 0%; in test [4], 100%.

With `Cc1cccc(CNc2ncc(-c3cc(C)no3)c(C(C)C)n2)c1` [Compound 99], the pest or weed control at 62 g/ha in test [1] was 70%; in test [2], 80%; in test [3], 30%; in test [4], 60%.

Turning to `Cc1cc(-c2cnc(N3CCCC3)nc2-c2ccc(C)o2)on1` [Compound 58], the pest or weed control at 500 g/ha in test [1] turned out to be 10%; in test [2], 0%; in test [3], 20%; in test [4] it was 0%.

Consider `Cc1cc(-c2cnc(NCc3ccccc3F)nc2C(F)(F)F)on1` [Compound 113], for which the pest or weed control at 125 g/ha in test [1] came to 20%; in test [2], 0%; in test [3] it was 0%; in test [4] it was 30%.

On to `Cc1cc(-c2cnc(NCc3cccc(F)c3)nc2C(C)C)on1` [Compound 17], for which the pest or weed control at 1000 g/ha is 80% in test [1] (1000 g/ha), 100% in test [2] (1000 g/ha), 0% in test [3] (1000 g/ha) and 100% in test [4] (1000 g/ha).

`Cc1cc(-c2cnc(N3CCCCC3)nc2C2CC2)on1` [Compound 31]: the pest or weed control at 500 g/ha in test [1] is 30%; in test [2], 0%; in test [3], 0%; in test [4] it was 70%.

For `Cc1cc(-c2cnc(NCCCN3CCC(C)CC3)nc2-c2ccco2)on1` [Compound 25], the pest or weed control at 500 g/ha in test [1] was 30%; in test [2] it was 0%; in test [3] it was 0%; in test [4] it was 30%.

Regarding `Cc1cc(-c2cnc(N3CCN(S(=O)(=O)N(C)C)CC3)nc2C2CC2)on1` [Compound 53], the pest or weed control at 500 g/ha was determined as 50% in test [1], 0% in test [2], 20% in test [3] and 20% in test [4].

`Cc1cc(-c2cnc(NCc3cccc(F)c3)nc2C(F)(F)F)on1` [Compound 126]: the pest or weed control at 125 g/ha turned out to be 70% in test [1], 100% in test [2], 0% in test [3] and 95% in test [4].

Regarding `Cc1cc(-c2cnc(N3CCN(c4ncccn4)CC3)nc2C(C)(C)C)on1` [Compound 61], the pest or weed control at 500 g/ha in test [1] came out at 0%; in test [2], 0%; in test [3] it was 0%; in test [4] it was 60%.

For the compound `CCNc1ncc(-c2cc(C)no2)c(C(C)C)n1` [Compound 11], the pest or weed control at 250 g/ha in test [1] turned out to be 80%; in test [2], 70%; in test [3] it was 0%; in test [4], 100%.

`Cc1cc(-c2cnc(NCc3ccncc3)nc2-c2ccc(C)o2)on1` [Compound 21]: the pest or weed control at 500 g/ha in test [1] turned out to be 20%; in test [2], 90%; in test [3] it was 0%; in test [4] it was 50%.

For the compound `Cc1cc(-c2cnc(NC3CC3)nc2C(C)C)on1` [Compound 38], the pest or weed control at 500 g/ha turned out to be 60% in test [1], 100% in test [2], 50% in test [3] and 100% in test [4].

Turning to `Cc1cc(-c2cnc(N3CCSCC3)nc2-c2ccc(C)o2)on1` [Compound 90], the pest or weed control at 125 g/ha came to 30% in test [1], 40% in test [2], 0% in test [3] and 30% in test [4].

As to `Cc1cc(-c2cnc(N3CCC(O)C(C)C3)nc2-c2ccc(C)o2)on1` (stereo not shown) [Compound 36], the pest or weed control at 500 g/ha in test [1] was found to be 30%; in test [2], 0%; in test [3], 0%; in test [4], 30%.

Turning to `Cc1cc(-c2cnc(NC3CCCC3)nc2C2CC2)on1` [Compound 13, N-cyclopentyl-4-cyclopropyl-5-(3-methyl-1,2-oxazol-5-yl)pyrimidin-2-amine], the pest or weed control at 125 g/ha is 80% in test [1], 70% in test [2], 40% in test [3] and 80% in test [4]. In addition, the pest or weed control at 250 g/ha is 100% in test [1], 100% in test [2], 80% in test [3] and 100% in test [4].

With `Cc1cc(-c2cnc(NC3CCCC3)nc2-c2ccc(C)o2)on1` [Compound 24], the pest or weed control at 500 g/ha in test [1] amounted to 70%; in test [2], 0%; in test [3], 0%; in test [4], 50%.

Regarding `Cc1cc(-c2cnc(NCCc3c(C)noc3C)nc2C2CC2)on1` [Compound 46], the pest or weed control at 500 g/ha in test [1] came to 70%; in test [2], 50%; in test [3] it was 60%; in test [4] it was 90%.
